According to US20250302798A1, “STING INHIBITORS AND USE THEREOF” (CARMEL HAIFA UNIVERSITY ECONOMIC CORPORATION LTD., priority 2022, published 2025):
“Also recorded” adds a separate entry of the source.

Assays:
STING [1] = molecular target: T1, STING (Mus musculus, UniProt Q3TBT3); assay: Cytokine secretion (ELISA) from DMXAA-activated splenocytes; type: cell-based, C57BL/6 mice; set-up: Splenocytes were recovered from C57BL/6 WT female mice; endogenous in cells; host or cells: primary splenocytes of C57BL/6 mice
T1 sequence (Q3TBT3 1-378): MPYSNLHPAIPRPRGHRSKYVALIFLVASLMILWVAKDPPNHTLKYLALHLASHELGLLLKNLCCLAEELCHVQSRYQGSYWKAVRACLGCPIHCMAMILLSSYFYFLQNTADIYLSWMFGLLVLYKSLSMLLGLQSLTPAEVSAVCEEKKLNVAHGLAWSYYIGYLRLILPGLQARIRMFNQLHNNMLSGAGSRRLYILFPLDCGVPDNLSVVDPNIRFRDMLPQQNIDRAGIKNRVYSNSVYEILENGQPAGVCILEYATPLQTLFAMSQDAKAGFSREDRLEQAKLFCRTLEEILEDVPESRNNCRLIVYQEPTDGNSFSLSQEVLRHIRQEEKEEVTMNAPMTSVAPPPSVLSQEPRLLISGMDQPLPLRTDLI
Procedure: FIGS. 1A-1B include bar graphs showing that Cluster 1 and 9 inhibit tumor necrosis factor alpha (TNFα) while only cluster 1 promotes IL-10 secretion from resting splenocytes activated by the selective STING agonist DMXAA. Splenocytes were recovered from C57BL/6 WT or STING^−/− female mice and were incubated (1×10^6 cells in 0.5 mL of culture media) overnight with a premade mixture of the individual compounds in each cluster (5-500 nM) or vehicle, and DMXAA (10 μM). Next, culture supernatants were collected and TNFα(1A) or IL-10 (1B) levels were determined by standard enzyme-linked immunosorbent assay ELISA (Biolegend).
FIGS. 2A-2D include graphs showing that compounds 5.9 and 7.9 inhibit TNFα and IL-10 secretion from DMXAA-activated splenocytes. Splenocytes were recovered from C57BL/6 WT female mice and incubated (1×10^6 cells in 0.5 mL of culture media) overnight with the individual compounds from cluster 9 (50-5,000 nM) or vehicle and DMXAA (5-10 μM; 2A-2B) or at 5,000 nM without DMXAA (2C-2D). Next, culture supernatants were collected and TNFα (2A, and 2C) or IL-10 (2B, and 2D) levels were determined by standard ELISA. In 2A-2B, black horizontal line indicates secretion level from vehicle-treated cells.
FIGS. 3A-3H include graphs and an image showing that compounds 2.1, 4.1, and 6.1 inhibit TNFα but promote IL-10 and IFN-beta secretion from DMXAA-activated splenocytes. Splenocytes were recovered from C57BL/6 WT female mice and incubated (1×10^6 cells in 0.5 mL of culture media) overnight with the individual compounds from cluster 1 (50-5,000 nM) or vehicle and DMXAA (10 μM; 3A, 3C, and 3E) or at 5,000 nM without DMXAA (3B, 3D, and 3F). Next, culture supernatants were collected and TNFα (3A-3B), IL-10 (3C-3D), or IFN-beta (3E-3F) levels were determined by standard ELISA. In 3A, 3C, and 3E, black horizontal line indicates secretion level from vehicle-treated cells. (3G-3H) Biased STING agonists (BiSTs) enhance DMXAA-induced STING signaling. Splenocytes were treated with 25 μg/ml DMXAA and 50 nM of compound 2.1 for 1-4 hr (3G). Then, the cells were analyzed by immunoblotting for phosphorylated STING, TBK-1, IRF3, and NF-kB, or their unphosphorylated controls, or actin as a loading control. Densitometry analysis for phosphorylated STING (p-STING) and STING proteins (3H) is also shown. Results are representative (3G) or mean±SEM (3H) from 3 repeats. One-way ANOVA, and Tukey HSD test *P<0.05.
Splenocytes were isolated from the spleens of unchallenged C57BL/6 WT or STING-KO mice by meshing against a grid. Peritoneal macrophages were isolated from mice undergoing peritonitis for 66 hr by washing with 5 ml PBS. The cellular exudate was stained with phycoerythrin (PE)-conjugated anti-F4/80 antibodies (bioLegend, CA, USA) and macrophages were isolated using magnetic beads (STEMCELL Technologies Inc, Vancouver, Canada). Isolated splenocytes or macrophages (0.5-1×10^6 cells per well) were incubated with 50-5,000 nM of individual substances or pooled clusters thereof. Then, the cells were treated with vehicle or 5-10 μM DMXAA (Cayman Chemical, MI, USA) to activate STING. After 24 hr, culture supernatants were collected and evaluated for levels of: TNFα, IFN-β and/or IL-10 using, standard ELISA (BioLegend, CA, USA).
To test which cluster(s) included compounds that modulate STING-mediated cytokine production, wild-type (WT) or STING knockout (−/−) splenocytes were incubated with the selective murine STING agonist DMXAA alone or with 5-500 nM of the pooled individual compounds in each cluster as indicated.
Next, the individual compounds in clusters 1 and 9 were tested at 50-5,000 nM. The first experiment was performed in resting splenocytes as detailed above.

STING [2] = molecular target: T2, STING (Homo sapiens, UniProt Q86WV6); assay: Cytokine expression and STING signaling in PMA-differentiated U937 macrophages; type: cell-based; conditions: 50 nM, compared with c-GAMP 1 μg/ml
T2 construct: endogenous in cells; host or cells: U937 cells differentiated with PMA
T2 sequence (Q86WV6 whole entry H232R): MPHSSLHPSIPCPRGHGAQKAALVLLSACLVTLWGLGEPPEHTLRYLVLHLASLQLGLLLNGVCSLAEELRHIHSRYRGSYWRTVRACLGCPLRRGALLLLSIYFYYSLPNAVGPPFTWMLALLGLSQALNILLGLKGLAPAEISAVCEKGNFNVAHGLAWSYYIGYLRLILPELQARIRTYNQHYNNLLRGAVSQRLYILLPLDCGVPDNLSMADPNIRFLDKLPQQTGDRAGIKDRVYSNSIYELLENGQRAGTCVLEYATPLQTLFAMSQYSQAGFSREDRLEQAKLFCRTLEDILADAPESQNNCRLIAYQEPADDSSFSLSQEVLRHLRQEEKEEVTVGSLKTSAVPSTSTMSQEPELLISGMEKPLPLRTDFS
Procedure: FIGS. 8A-8G include graphs and an image showing that compound 2.1 activates cytokine expression and STING signaling in human macrophages in a similar fashion to cGAMP. Human monocytes of the U937 cell line were treated with phorbol 12-myristate 13-acetate (PMA; 50 ng/ml) for 48 hours. Then, differentiated macrophages (4×10^6 cells) were treated with c-di-GMP (10 μg/ml), c-GAMP (1 μg/ml), compound 2.1 (50 nM) or vehicle for 8 (8A-8F) or 2 (8G) hours. Cells (8A-8D, and 8G) or culture supernatants (8E-8F), were collected and analyzed by RT-PCR, ELISA, and immunoblotting for: TNFα (8A), IL-6 (8B), IL-10 (8C), IFN-β (8D), IL-10 (8E), and TNFα (8F), or STING-IFN-β-RGS2 pathway proteins and actin as a loading control (8G). Results are representative mean±SEM from 3 experiments. One-way ANOVA, and Tukey HSD test ** P≤0.01, P<0.001, **** P≤0.0001.

[3] = individual compounds 50-5,000 nM + DMXAA 5-10 μM, overnight

STING inhibition (ranking) (STING [1]; at 5,000 nM, resting splenocytes): Best STING Inhibitors
Mode of action on STING (overall) (STING [1]; summary over various cell types, DMXAA stimulation): biased agonists
STING signaling (STING-IFN-β-RGS2 pathway proteins) (STING [2]; 2 hours): activates
Cytokine expression (TNFα, IL-6, IL-10, IFN-β) (STING [2]; 8 hours): activates
SMILES: c1ccc(CSc2nnc(CCCCCCCCc3nnc(SCc4ccccc4)o3)o2)cc1 [Compound 2.1, 2-(benzylsulfanyl)-5-{8-[5-(benzylsulfanyl)-1,3,4-oxadiazol-2-yl]octyl}-1,3,4-oxadiazole]
IFN-beta secretion (STING [1]; individual compounds 50-5,000 nM + DMXAA 10 μM, overnight): most potent inducer; also recorded: promote
IL-10 secretion (STING [1]; [3]): most potent inducer; also recorded: promote
TNFα secretion (STING [1]; [3]): doing so at lower concentrations; also recorded: inhibit
